According to patent US20080280833A1, “Therapeutic Peptides Derived from Urokinase Plasminogen Activator Receptor” (priority 2005, published 2008):

What was measured:
[1] = tested on: rat smooth muscle cells (RSMC); experiment: Chemotaxis assay, rat smooth muscle cells; format: cell-based; conditions: RSMC; for inhibition of D2A-induced RSMC migration: attractant D2A; for inhibition of VN-induced RSMC migration: attractant VN
Method: Chemotaxis assay was performed as described (Degryse et al., 1999, 2001a, 2001b) with modified Boyden chambers. Filters (5 μm pore size, Neuro Probe, Gaithersburg, Md.) were treated with collagen I (100 μg/ml) and fibronectin (10 μg/ml, Roche).≈40-50,000 cells in serum-free DMEM were added to the upper well and the chemoattractants tested added to the lower well. When present, antibodies, or inhibitors were added in both wells. After overnight migration at 37° C., cells remaining on the upper surface of filters were scraped off and filters were fixed in methanol and stained in a solution of 10% (w/v) crystal violet in 20% (v/v) methanol. The experiments were performed at least twice in triplicate and the results, expressed as fold over control, are the mean ±SD of the number of cells counted in ten high power fields per filter. Random cell migration, i.e. migration in the absence of chemoattractant, was given the arbitrary value of 100%.

KG-1 cells = experiment: Chemotaxis assay of non adherent cells, Boyden micro-chamber; format: cell-based, human
Method: Chemotaxis assay of non adherent cells was performed as described (Degryse et al., 2001; FEBS lett. 505: 249-254) using modified Boyden micro-chamber with the exception that the filter was not treated. 50,000 cells were added in the top well in serum-free RPMI medium and allowed to migrate for 1 hour at 37° C. The molecules to be tested as chemoattractant were diluted in serum-free RPMI medium and added in the lower well of the Boyden chamber. Experiments were performed in triplicate. Results are the mean ±SD of the number of cells counted in five high power fields. Migration in the absence of chemoattractant is referred to as 100%.

[2] = tested on: Rat Smooth Muscle Cells and HT1080 Human Fibrosarcoma Cells; experiment: Boyden chamber assays, pleiotropic inhibition of chemotaxis; format: cell-based
Source text: In Boyden chamber assays, D2A-Ala and GAAG inhibit not only VN-dependent and uPA-dependent chemotaxis (as reported above), but also EGF— and UTP-dependent chemotaxis. The effect is dose-dependent. Notice that the EGF-dependent and the UTP-dependent chemotaxis work through receptors (EGF-receptor and P2Y2 receptor, respectively), that are different among themselves and are different from those employed by uPA (uPAR) and VN (αvβ3). We conclude that these two inhibitors are general inhibitors of chemotaxis.

[3] = tested on: human HT1080 fibrosarcoma cells; experiment: Matrigel invasion assay; format: cell-based; conditions: for stimulation of Matrigel invasiveness of HT1080 cells: substance alone, 24 hours at 37° C.
[4] = HT1080, at about the same concentration (around 1 pM)

For `N#C/C(=C/c1ccc(O)c(O)c1)C(=O)NCc1ccccc1` [AG-490, reference compound], the “inhibition of D2A-induced RSMC migration” value [1] was “inhibited” and the “inhibition of VN-induced RSMC migration” value [1] was “inhibited”.
In the case of `COc1cccc(-c2cc(=O)c3ccccc3o2)c1N` [PD98059, reference compound], the “inhibition of D2A-induced RSMC migration” value [1] is reported as “Neither VN- nor D2A-induced cell migration were blocked” and the “inhibition of VN-induced RSMC migration” value [1] is reported as “Neither VN- nor D2A-induced cell migration were blocked”.
With “GAAG (Amino acid sequence motif) [shorter version of D2A-Ala]” the “inhibition of vitronectin (VN)-induced chemotaxis of KG-1 cells” value (KG-1 cells) was “inhibited”, the “inhibition of VN-dependent chemotaxis” value [2] was “inhibit” and the “inhibition of uPA-dependent chemotaxis” value [2] was “inhibit”. The “inhibition of EGF-dependent chemotaxis” value ([2]; dose-dependent) was “inhibit”, the “inhibition of UTP-dependent chemotaxis” value ([2]; dose-dependent) was “inhibit” and the “inhibition of EGF-dependent invasion” value ([3]; HT1080, 100 pM) was “inhibit”. The “inhibition of insulin-dependent invasion” value ([3]; HT1080, 100 pM) was “inhibit”, the “inhibition of VN-induced invasiveness” value [3, 4] was “inhibit” and the “inhibition of uPA-induced invasiveness” value [3, 4] was “inhibit”. For the same compound, the “inhibition of FN-induced invasion” value ([3]; HT1080, at the same concentration) was “inhibit” and the “stimulation of Matrigel invasiveness of HT1080 cells” value [3] was “have no effects”.
GEEG was tested, and the “concentration of peak stimulation of Matrigel invasiveness” value ([3]; HT1080, dose-dependent) was “around 1 pM” and the “stimulation of Matrigel invasiveness of HT1080 cells” value [3] was “stimulate”.
In the case of RDDKPRGEEGEQI [D2B], the “chemotaxis of KG-1 cells” value (KG-1 cells; peptide as chemoattractant, 1 hour at 37° C.) is reported as “also promotes the migration” and the “stimulation of RSMC migration (chemotactic activity)” value [1] is reported as “equally active in stimulating migration”.
